From PubChem BioAssay (NCI)
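These data come from cells grown in 96-well plates and exposed to compound for 48 hours at five concentrations. The concentration for full growth arrest is given as TGI.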

Key:
Assay in all cases: DTP human tumour cell line panel, 48 h
[1] = tested on: UO-31 renal
[2] = tested on: MDA-N
[3] = tested on: UACC-257 melanoma
[4] = tested on: HL-60(TB) leukemia
[5] = tested on: PC-3 prostate
[6] = tested on: MDA-MB-435
[7] = tested on: UACC-62 melanoma
[8] = tested on: CCRF-CEM leukemia
[9] = tested on: MOLT-4 leukemia
[10] = tested on: LOX IMVI melanoma
[11] = tested on: SW-620 colon
[12] = tested on: NCI-H460 lung
[13] = tested on: KM12 colon
[14] = tested on: A498 renal
[15] = tested on: M14 melanoma
[16] = tested on: MALME-3M melanoma
[17] = tested on: HCC-2998 colon
[18] = tested on: SK-MEL-28 melanoma
[19] = tested on: HOP-62 NSCLC
[20] = tested on: HCT-15 colon
[21] = tested on: 786-0 renal
[22] = tested on: RXF 393 renal
[23] = tested on: SK-OV-3 ovarian
[24] = tested on: SNB-75 CNS
[25] = tested on: SN12C renal
[26] = tested on: U251 CNS
[27] = tested on: ACHN renal
[28] = tested on: A549 NSCLC
[29] = tested on: SF-539 CNS
[30] = tested on: NCI/ADR-RES ovarian
[31] = tested on: HOP-92 NSCLC
[32] = tested on: NCI-H226 lung
[33] = tested on: EKVX NSCLC
[34] = tested on: SK-MEL-2 melanoma
[35] = tested on: MDA-MB-231 breast
[36] = tested on: SNB-19 CNS
[37] = tested on: BT-549 breast
[38] = tested on: DU-145 prostate
[39] = tested on: SF-295 CNS
[40] = tested on: SK-MEL-5 melanoma
[41] = tested on: OVCAR-4 ovarian
[42] = tested on: OVCAR-5 ovarian
[43] = tested on: SF-268 CNS
[44] = tested on: OVCAR-3 ovarian
[45] = tested on: K-562 leukemia
[46] = tested on: OVCAR-8 ovarian
[47] = tested on: SR leukemia
[48] = tested on: CAKI-1 renal
[49] = tested on: TK-10 renal
[50] = tested on: NCI-H23 lung
[51] = tested on: HT29 colon
[52] = tested on: HS 578T breast
[53] = tested on: NCI-H522 lung
[54] = tested on: COLO 205 colon
[55] = tested on: T-47D breast
[56] = tested on: MCF7 breast
[57] = tested on: IGROV1 ovarian
[58] = tested on: HCT-116 colon
[59] = tested on: RPMI-8226 leukemia

Compound: O=[N+]([O-])c1ccc(Sc2c3ccccc3nc3ccccc23)cn1
- TGI [1]: 32.3 µM
- TGI [2]: 31.8 µM
- TGI [3]: 31.8 µM
- TGI [4]: > 61.7 µM
- TGI [5]: 38.1 µM
- TGI [6]: 33.2 µM
- TGI [7]: 35 µM
- TGI [8]: 8.3 µM
- TGI [9]: 6.62 µM
- TGI [10]: 26.9 µM
- TGI [11]: > 57.4 µM
- TGI [12]: > 100 µM
- TGI [13]: 95.1 µM
- TGI [14]: > 100 µM
- TGI [15]: 31.5 µM
- TGI [16]: 19.9 µM
- TGI [17]: > 81.7 µM
- TGI [18]: 58.4 µM
- TGI [19]: > 65.7 µM
- TGI [20]: 28.8 µM
- TGI [21]: 8.48 µM
- TGI [22]: 60.3 µM
- TGI [23]: > 93 µM
- TGI [24]: > 63.4 µM
- TGI [25]: 43.2 µM
- TGI [26]: > 60.1 µM
- TGI [27]: 17.4 µM
- TGI [28]: > 100 µM
- TGI [29]: > 20.5 µM
- TGI [30]: > 100 µM
- TGI [31]: 16.9 µM
- TGI [32]: > 100 µM
- TGI [33]: > 86.2 µM
- TGI [34]: 48.1 µM
- TGI [35]: 42.5 µM
- TGI [36]: > 66.6 µM
- TGI [37]: 28.8 µM
- TGI [38]: 26.5 µM
- TGI [39]: > 100 µM
- TGI [40]: > 100 µM
- TGI [41]: 75.9 µM
- TGI [42]: > 100 µM
- TGI [43]: 52.4 µM
- TGI [44]: 20.3 µM
- TGI [45]: 6.66 µM
- TGI [46]: 52.5 µM
- TGI [47]: > 100 µM
- TGI [48]: 11.7 µM
- TGI [49]: 28.6 µM
- TGI [50]: > 47.8 µM
- TGI [51]: 28 µM
- TGI [52]: 29.7 µM
- TGI [53]: 10.8 µM
- TGI [54]: 10.4 µM
- TGI [55]: 19.9 µM
- TGI [56]: 19.1 µM
- TGI [57]: > 64.7 µM
- TGI [58]: 11.9 µM

Compound: O=C1CCSCCC(=O)Nc2ccccc2N1
- TGI [1]: > 100 µM
- TGI [59]: > 100 µM
- TGI [2]: > 100 µM
- TGI [3]: > 100 µM
- TGI [4]: > 100 µM
- TGI [5]: > 100 µM
- TGI [6]: > 100 µM
- TGI [7]: > 100 µM
- TGI [8]: > 100 µM
- TGI [9]: > 100 µM
- TGI [10]: > 100 µM
- TGI [11]: > 100 µM
- TGI [12]: > 100 µM
- TGI [13]: > 100 µM
- TGI [14]: > 100 µM
- TGI [15]: > 100 µM
- TGI [16]: > 100 µM
- TGI [18]: > 100 µM
- TGI [19]: > 100 µM
- TGI [20]: > 100 µM
- TGI [21]: > 100 µM
- TGI [22]: > 100 µM
- TGI [23]: > 100 µM
- TGI [25]: > 100 µM
- TGI [26]: > 100 µM
- TGI [27]: > 100 µM
- TGI [28]: > 100 µM
- TGI [29]: > 100 µM
- TGI [30]: > 100 µM
- TGI [31]: > 100 µM
- TGI [32]: > 100 µM
- TGI [33]: > 100 µM
- TGI [34]: > 100 µM
- TGI [35]: > 100 µM
- TGI [36]: > 100 µM
- TGI [37]: > 100 µM
- TGI [38]: > 100 µM
- TGI [39]: > 100 µM
- TGI [40]: > 100 µM
- TGI [41]: > 100 µM
- TGI [42]: > 100 µM
- TGI [43]: > 100 µM
- TGI [44]: > 100 µM
- TGI [45]: > 100 µM
- TGI [46]: > 100 µM
- TGI [47]: > 100 µM
- TGI [48]: > 100 µM
- TGI [49]: > 100 µM
- TGI [50]: > 100 µM
- TGI [51]: > 100 µM
- TGI [52]: > 100 µM
- TGI [53]: > 100 µM
- TGI [54]: > 100 µM
- TGI [55]: > 100 µM
- TGI [57]: > 100 µM
- TGI [58]: > 100 µM

Compound: CC(=O)OCC1OC(n2c(C)c(N=Nc3ccc(Cl)cc3)c(C)c(C#N)c2=S)C(OC(C)=O)C(OC(C)=O)C1OC(C)=O (stereo not drawn)
- TGI [1]: > 100 µM
- TGI [59]: > 100 µM
- TGI [2]: > 100 µM
- TGI [3]: > 100 µM
- TGI [4]: > 100 µM
- TGI [5]: > 100 µM
- TGI [6]: > 100 µM
- TGI [7]: > 100 µM
- TGI [8]: > 100 µM
- TGI [9]: > 100 µM
- TGI [10]: > 100 µM
- TGI [11]: > 100 µM
- TGI [12]: > 100 µM
- TGI [13]: > 100 µM
- TGI [15]: > 100 µM
- TGI [16]: > 100 µM
- TGI [17]: > 100 µM
- TGI [18]: > 100 µM
- TGI [19]: 51.7 µM
- TGI [20]: > 100 µM
- TGI [21]: 42.4 µM
- TGI [22]: 40.7 µM
- TGI [23]: > 100 µM
- TGI [24]: 49.1 µM
- TGI [25]: > 100 µM
- TGI [26]: 98 µM
- TGI [27]: > 100 µM
- TGI [28]: > 100 µM
- TGI [29]: > 100 µM
- TGI [30]: > 100 µM
- TGI [31]: 20.2 µM
- TGI [34]: 92.1 µM
- TGI [35]: > 100 µM
- TGI [36]: > 100 µM
- TGI [37]: 52.3 µM
- TGI [38]: > 100 µM
- TGI [39]: 76.5 µM
- TGI [40]: > 100 µM
- TGI [41]: > 100 µM
- TGI [42]: > 100 µM
- TGI [43]: > 100 µM
- TGI [44]: > 100 µM
- TGI [45]: > 100 µM
- TGI [47]: > 100 µM
- TGI [48]: > 100 µM
- TGI [49]: > 100 µM
- TGI [50]: > 100 µM
- TGI [51]: > 100 µM
- TGI [52]: 68 µM
- TGI [54]: > 100 µM
- TGI [55]: > 100 µM
- TGI [56]: > 100 µM
- TGI [57]: > 100 µM
- TGI [58]: > 100 µM
